Here are results for 5 compounds from the NIST ThermoML archive (doi:10.1021/je100556t).

The conditions of the data set: 298.15 K; 101.33 kPa; Liquid.

± gives the expanded uncertainty stated by the source.

Turning to `C1CCCCC1` [cyclohexane], the molar volume was 0.0001088 ± 9e-08 m3/mol.
Consider `COCCO` [2-methoxyethan-1-ol], for which the molar volume was 7.926e-05 ± 3e-08 m3/mol.
As for `CCO` [ethanol], the molar volume amounted to 5.866e-05 ± 5e-08 m3/mol.
As to `C1CCOC1` [tetrahydrofuran], the molar volume is reported as 8.174e-05 ± 4e-08 m3/mol.
The value for `CCOCCO` [2-ethoxyethan-1-ol] was 9.742e-05 ± 4e-08 m3/mol.
